Data reported in patent US20090163696A1, “METHOD FOR PREPARING LYSOBACTIN DERIVATIVES” (priority 2006, published 2009).
*1 amine or outer side, *2 acyl side, *3 side chain or, on linkers, in order; H or OH if unused. Where a SMILES comes first, the peptide text is derived from it. Bridges are numbered along the chain shown (N, C = ends). [ ]: non-standard residue; d: D form. ξ: configuration not given here. Phe(3R-OH) = O=C([C@@H](N[*:1])[C@H](O[*:3])c1ccccc1)[*:2]; Asn(3S-OH) = NC(=O)[C@@H](O)[C@H](N)C(=O)O; Leu(3R-OH) = CC(C)[C@@H](O)[C@H](N)C(=O)O; aThr = C[C@H](O)[C@H](N)C(=O)O; ξS = NC(CO)C(=O)O

Test system: Staphylococcus aureus 133, Entercococcus faecalis ICB27159 and Streptococcus pneumoniae G9a
Assay: Determination of the minimum inhibitory concentration (MIC), liquid dilution test
Type: cell-based
Details: lysobactin prepared by complete synthesis compared with fermented lysobactin
Experimental: The in vitro effect of the compounds of the invention can be shown in the following assay: Determination of the Minimum Inhibitory Concentration (MIC): The MIC is determined in the liquid dilution test in accordance with the NCCLS guidelines. Overnight cultures of Staphylococcus aureus 133, Entercococcus faecalis ICB27159 and Streptococcus pneumoniae G9a are incubated with the described test substances in a 1:2 dilution series. The MIC determination is carried out with a cell count of 10^5 microbes per ml in Isosensitest medium (Difco, Irvine/USA), with the exception of S. pneumoniae, which is tested in BHI broth (Difco, Irvine/USA) with 10% bovine serum at a cell count of 10^6 microbes per ml. The cultures are incubated at 37° C. for 18-24 hours, S. pneumoniae in the presence of 10% CO2. The MIC is defined as the lowest concentration of each substance at which no visible bacterial growth occurs any longer. The MIC values are reported in μg/ml.

physiological activity (MIC): No significant differences
Structure (SMILES): CC[C@H](C)[C@@H]1NC(=O)[C@@H](CCCNC(=N)N)NC(=O)[C@H](CC(C)C)NC(=O)[C@H]([C@H](O)C(C)C)NC(=O)[C@@H](NC(=O)[C@H](CC(C)C)NC(=O)[C@H](N)CC(C)C)[C@@H](c2ccccc2)OC(=O)C(CO)NC(=O)[C@H]([C@H](O)C(N)=O)NC(=O)CNC(=O)[C@H]([C@H](C)O)NC1=O (stereo partly drawn) [lysobactin, Lysobactin Bistrifluoroacetate] (H-[dL]L[Phe(3R-OH)][Leu(3R-OH)]L[dR]I[aThr]G[Asn(3S-OH)][ξS]; ester 3-C)
